# Laboratory results: patent US6673348B2, “Heat shock protein-based vaccines and immunotherapies” (priority 1995, dated 2004)
# No end group written: not given here.
# What was measured:
# [1] = test system: Ova-peptide pulsed EL4 cells; assay: Cytotoxicity of spleen cells from vaccinated mice, 18-hour chromium release assay; format: in vivo, C57BL/6 mice; settings: mice immunized with the single component alone
# Procedure: The purified hsp70 was combined with the synthesized peptides and used for immunization. To form the hsp70/peptide mixtures, approximately 15 μg (21.5 μM) hsp70 was combined with 5 μg of ova-peptide (0.5 mM, SEQ. ID. NO: 7) or 10 μg (0.5 mM) hybrid peptide (SEQ. ID NOS: 8 and 9) were mixed on ice to a final volume of 10 μl in Buffer B (final concentration: 20 mM Hepes pH 7.0, 150 mM KCl, 10 mM (NH4)2SO4, 2 mM MgCl2 and 2 mM MgADP, pH 7.0). The mixtures were incubated for 30 minutes at 37° C. and then used for in vivo immunizations.
# C57BL/6 mice were immunized intradermally once a week for a total of two weeks with 10 μL of one of the mixtures described above or with a mixture of TITERMAX® (Vaxcell, Norcross, Ga.) and Ova-peptide (5 μg). One week after the second immunization, spleen cells were removed and mononuclear cells (6-8×10^7) were cultured with 3×10^6 γ-irradiated (3000 rad) stimulator cells. The stimulator cells were obtained from naive mice that had been sensitized in vitro with Ova-peptide (10 mg/ml) for 30 minutes at room temperature, washed and irradiated at 3000 rads.
# Cytotoxicity of spleen cells from vaccinated mice were assayed on Ova-peptide pulsed EL4 cells in an 18-hour chromium release assay. CTL were generated by culturing in vivo immunized spleen cells for 5 days at a concentration of 10^6 cells/mL in RPMI medium, 10% FCS, penicillin, streptomycin and 2 mM L-glutamine, together with 3×10^6 γ-irradiated (3,000 rad) stimulator cells/mL. Target cells were prepared by culturing cells for 1 hour in the presence of 250 μCi of ^51Cr sodium chromate (DuPont, Boston, Mass.) in Tris-phosphate buffer, pH 7.4 at 37° C. for 60 minutes. After washing, 10^4 ^51Cr-labeled target cells were mixed with effector lymphocytes to yield several different effector/target (E/T) ratios and were incubated for 18 hours. Supernatants were harvested and the radio-activity was measured in a gamma counter. Percent specific lysis was calculated as: 100×[(cpm release by CTL-cpm spontaneous release)/(cpm maximal release—cpm spontaneous release)]. Maximal response was determined by addition of 1% Triton X-100. Spontaneous release of all target in the absence of effector cells was less than 25% of the maximal release.
# hsp70 = biological target: T1, hsp70 (Mus musculus, UniProt P17879); assay: Binding of 14C-labeled OVA-BiP to heat shock protein, co-elution on Sephacryl S-300 column; settings: 100 μM 14C-labeled peptide, 50 μg hsp70, 37° C., 30 minutes
# T1 construct: made in house; host or cells: E. coli DH5α, plasmid pMS236
# Procedure: Purified mouse cytosolic hsp70 was prepared from E. coli DH5α cells transformed with pMS236 encoding mouse cytosolic hsp70. The cells were grown to an optical density (600 nm) of 0.6 at 37° C., and expression was induced by the addition of IPTG to a final concentration of 1 mM. Cells were harvested by centrifugation 2 to 5 hours post induction and the pellets were resuspended to 20 mL with Buffer A (20 mM Hepes pH 7.0, 25 mM KCl, 1 mM DTT, 10 mM (NH4)2SO4, 1 mM PMSF). The cells were lysed by passing three times through a French press. The lysate was cleared by a low speed spin, followed by centrifugation at 100,000×G for 30 minutes. The cleared lysate was applied to a Pharmacia XK26 column packed with 100 mL DEAE Sephacel and equilibrated with Buffer A at a flow rate of 0.6 cm/min. The column was washed to stable baseline with Buffer A and eluted with Buffer A adjusted to 175 mM KCl. […]
# The ability of the OVA-BiP peptide to bind to heat shock proteins was measured by incubating 100 μM (5μg) ^14C-labeled OVA-BiP with 50 μg of BiP (prepared as in example 11), hsp70 (as prepared in Example 2) or grp96 (prepared as in Example 10) in a final volume of 20 μl of buffer (50 mM Mops, pH 7.2., […] NaCl, 5 mM MgAcetate) at 37° C. for 30 minutes. […] 50 μl of each ˜225 μl fraction was counted in scintillation liquid. […]
# BiP [2] = biological target: T2, BiP (Mus musculus, UniProt P20029); assay: as above; settings: 100 μM 14C-labeled peptide, 50 μg BiP, 37° C., 30 minutes
# T2 construct: mature wild-type or KDEL-deleted BiP can be harvested from the periplasm; extra Met (initiator ATG of the 5' primer, ahead of the mature N-terminus) (N); made in house; host or cells: E. coli BL21, pET22, periplasmic extract
# Procedure: ^14C-labeled OVA-BiP was prepared by alkylation of OVA-BiP with ^14C-formaldehyde. 0.9 mg of OVA-BiP in 300 uL 10% DMSO/water was added to 175 μl of ^14C-formaldehyde (62 μCi) and immediately 50 uL of freshly made up 200 mM NaCNBH3 was added. The reaction was mixed and left at 25° C. for 3 hours. The labeled peptide was repurified by reverse phase HPLC on a C-4 column in a 15 minute 0-100% acetonitrile (0.1% TFA) gradient.
# The ability of the OVA-BiP peptide to bind to heat shock proteins was measured by incubating 100 μM (5μg) ^14C-labeled OVA-BiP with 50 μg of BiP (prepared as in example 11), hsp70 (as prepared in Example 2) or grp96 (prepared as in Example 10) in a final volume of 20 μl of buffer (50 mM Mops, pH 7.2., […] NaCl, 5 mM MgAcetate) at 37° C. for 30 minutes. The samples were then spun down (5 minutes in a microfuge) and loaded onto a 17 cm long Sephacryl S-300 column equilibrated in binding buffer (50 mM Mops, pH 7.2., 200 mM NaCl, 5 mM MgAcetate) and fractions were collected dropwise. 50 μl of each ˜225 μl fraction was counted in scintillation liquid. 10 μl of each fraction was also run on a 12% SDS-PAGE reducing gel. […] The result for gp96 is unclear because the peak at fraction 11 (which may represent an aggregation phenomenon) and the gp96 peak (fraction 14) elute close together on the column used.
# BiP [3] = biological target: T2, BiP; assay: ATP-mediated peptide release, elution profile of 125I-OVA-BiP and BiP; format: binding; settings: presence and absence of 2 mM ATP
# Procedure: To prepare ^125I-OVA-BiP, 250 μCi of monoiodinated Bolton-Hunter reagent was transferred into a stoppered vial and the solvent in which it was dissolved was evaporated with a gentle stream of argon gas. To the dried reagent 222 μL of 4.5 mg/mL OVA-BiP in 100 mM NaBO3, pH 8, […], 10% DMSO was added. The reaction was mixed and incubated at 25° C. for 45 minutes and continued at 4° C. for a further hour. The labeled peptide was repurified by reverse phase HPLC on a C-4 column in a 20 minute, 0-100% acetonitrile (0.1% TFA) gradient. The iodinated OVA-BiP was combined with BiP in substantially the same manner as the heat shock proteins in Example 7, except that since the iodinated peptide was at a very low concentration, 1 μl (approx 32 ng) of labeled peptide was mixed with 5 μg of unlabeled peptide and this was incubated with 50 μg of BiP in 20 μL of binding buffer. To observe ATP-mediated peptide release, ATP was added to a final concentration of 2 mM after the 30 minute incubation and incubated for a further 5 minutes prior to spinning. These samples were run on the same column as above, but equilibrated in binding buffer supplemented with 2 mM ATP. […] This is consistent with the observation that ATP mediates release of bound proteins or polypeptides from heat shock proteins.
# T2 sequence (P20029 20-655): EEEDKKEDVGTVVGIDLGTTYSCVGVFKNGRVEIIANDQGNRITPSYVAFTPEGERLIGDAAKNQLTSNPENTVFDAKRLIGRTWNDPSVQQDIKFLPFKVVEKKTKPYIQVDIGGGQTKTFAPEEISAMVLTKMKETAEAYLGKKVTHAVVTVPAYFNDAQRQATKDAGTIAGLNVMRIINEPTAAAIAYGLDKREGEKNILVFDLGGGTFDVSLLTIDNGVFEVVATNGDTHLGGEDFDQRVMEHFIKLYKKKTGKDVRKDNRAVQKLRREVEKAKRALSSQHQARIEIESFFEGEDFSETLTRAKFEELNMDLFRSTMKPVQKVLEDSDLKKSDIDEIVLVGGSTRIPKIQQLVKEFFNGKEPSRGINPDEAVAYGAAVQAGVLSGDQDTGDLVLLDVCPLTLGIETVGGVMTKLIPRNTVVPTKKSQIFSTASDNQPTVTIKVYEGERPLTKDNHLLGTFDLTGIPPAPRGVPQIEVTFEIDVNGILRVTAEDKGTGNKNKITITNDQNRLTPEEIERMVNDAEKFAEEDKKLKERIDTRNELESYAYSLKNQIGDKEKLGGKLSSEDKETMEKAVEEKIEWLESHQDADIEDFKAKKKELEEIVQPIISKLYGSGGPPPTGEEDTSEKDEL
# T1 sequence (P17879 whole entry): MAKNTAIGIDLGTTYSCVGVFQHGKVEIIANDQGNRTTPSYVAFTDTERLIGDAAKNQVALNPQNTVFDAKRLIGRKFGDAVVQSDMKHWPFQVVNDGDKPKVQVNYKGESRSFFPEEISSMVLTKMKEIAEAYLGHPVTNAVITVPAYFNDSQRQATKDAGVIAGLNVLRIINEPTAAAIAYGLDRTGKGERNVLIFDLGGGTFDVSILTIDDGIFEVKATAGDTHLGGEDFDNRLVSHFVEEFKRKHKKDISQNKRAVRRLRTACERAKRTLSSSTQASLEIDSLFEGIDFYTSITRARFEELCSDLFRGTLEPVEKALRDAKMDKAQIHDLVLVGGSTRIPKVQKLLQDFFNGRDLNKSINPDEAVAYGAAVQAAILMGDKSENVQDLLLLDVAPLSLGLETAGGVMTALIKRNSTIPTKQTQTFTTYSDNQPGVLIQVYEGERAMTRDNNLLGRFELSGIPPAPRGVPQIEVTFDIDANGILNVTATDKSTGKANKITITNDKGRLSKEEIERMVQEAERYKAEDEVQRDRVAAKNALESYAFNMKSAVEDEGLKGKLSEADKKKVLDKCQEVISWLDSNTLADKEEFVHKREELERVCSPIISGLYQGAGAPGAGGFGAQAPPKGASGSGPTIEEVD
Substance,results on cells pulsed with Ova-peptide (FIG. 5A) versus cells not pulsed (FIG. 5B) [1],radio-activity co-eluting with heat shock protein (FIG. 6) (hsp70),radio-activity co-eluting with heat shock protein (FIG. 6) (BiP [2]),release of hybrid peptide from BiP on addition of ATP (FIG. 7) (BiP [3])
HWDFAWPWGSGSIINFEKL [BiP-OVA],the same,,,
SIINFEKLGSGHWDFAWPW [OVA-BiP],the same,significant amount of radio-activity elutes with BiP and hsp70,significant amount of radio-activity elutes with BiP,
"Ser-Ile-Ile-Asn-Phe-Glu-Lys-Leu (SIINFEKL) [Ova-peptide, OVA antigenic domain peptide, reference compound]",the same,,,
"^125I-OVA-BiP: OVA-BiP labeled with monoiodinated Bolton-Hunter reagent (SIINFEKLGSGHWDFAWPW; also: labelled with monoiodinated (125I) Bolton-Hunter reagent, place not given here)",,,,addition of ATP causes the release
hsp70: purified recombinant mouse cytosolic hsp70 from E. coli DH5α transformed with pMS236,the same,,,
